Source: ChEMBL document CHEMBL5512688 (J Med Chem, 2024)

How the values were obtained:
A-427 [1] = experiment: Antiproliferative activity against human A-427 cells assessed as inhibition of cell growth incubated for 72 hrs by CCK-8 assay; type: functional, cell-based; settings: A-427, 72 h
[2] = Metabolic stability in human liver microsome assessed as parent compound remaining measured at 60 mins by LCMS/MS analysis; type: ADME; settings: liver microsomes, read-out: Stability
[3] = AUC (0 to 24 hrs) in ICR mouse at 1 mg/kg, iv measured upto 24 hrs by LC-MS/MS analysis; type: ADME, organism-based; settings: in vivo
[4] = Half life in ICR mouse at 1 mg/kg, iv measured upto 24 hrs by LC-MS/MS analysis; type: ADME, organism-based; settings: in vivo
[5] = Clearance in ICR mouse at 1 mg/kg, iv measured upto 24 hrs by LC-MS/MS analysis; type: ADME, organism-based; settings: in vivo
[6] = AUC (0 to 24 hrs) in ICR mouse at 60 mg/kg, IG measured upto 24 hrs by LC-MS/MS analysis; type: ADME, organism-based; settings: in vivo, po
[7] = Half life in ICR mouse at 60 mg/kg, IG measured upto 24 hrs by LC-MS/MS analysis; type: ADME, organism-based; settings: in vivo, po
[8] = target: T1, Mitogen-activated protein kinase kinase kinase 19 (Homo sapiens) (UniProt Q56UN5); experiment: Inhibition of MAP3K19 (unknown origin) at 1 uM relative to control
T1 sequence (whole entry): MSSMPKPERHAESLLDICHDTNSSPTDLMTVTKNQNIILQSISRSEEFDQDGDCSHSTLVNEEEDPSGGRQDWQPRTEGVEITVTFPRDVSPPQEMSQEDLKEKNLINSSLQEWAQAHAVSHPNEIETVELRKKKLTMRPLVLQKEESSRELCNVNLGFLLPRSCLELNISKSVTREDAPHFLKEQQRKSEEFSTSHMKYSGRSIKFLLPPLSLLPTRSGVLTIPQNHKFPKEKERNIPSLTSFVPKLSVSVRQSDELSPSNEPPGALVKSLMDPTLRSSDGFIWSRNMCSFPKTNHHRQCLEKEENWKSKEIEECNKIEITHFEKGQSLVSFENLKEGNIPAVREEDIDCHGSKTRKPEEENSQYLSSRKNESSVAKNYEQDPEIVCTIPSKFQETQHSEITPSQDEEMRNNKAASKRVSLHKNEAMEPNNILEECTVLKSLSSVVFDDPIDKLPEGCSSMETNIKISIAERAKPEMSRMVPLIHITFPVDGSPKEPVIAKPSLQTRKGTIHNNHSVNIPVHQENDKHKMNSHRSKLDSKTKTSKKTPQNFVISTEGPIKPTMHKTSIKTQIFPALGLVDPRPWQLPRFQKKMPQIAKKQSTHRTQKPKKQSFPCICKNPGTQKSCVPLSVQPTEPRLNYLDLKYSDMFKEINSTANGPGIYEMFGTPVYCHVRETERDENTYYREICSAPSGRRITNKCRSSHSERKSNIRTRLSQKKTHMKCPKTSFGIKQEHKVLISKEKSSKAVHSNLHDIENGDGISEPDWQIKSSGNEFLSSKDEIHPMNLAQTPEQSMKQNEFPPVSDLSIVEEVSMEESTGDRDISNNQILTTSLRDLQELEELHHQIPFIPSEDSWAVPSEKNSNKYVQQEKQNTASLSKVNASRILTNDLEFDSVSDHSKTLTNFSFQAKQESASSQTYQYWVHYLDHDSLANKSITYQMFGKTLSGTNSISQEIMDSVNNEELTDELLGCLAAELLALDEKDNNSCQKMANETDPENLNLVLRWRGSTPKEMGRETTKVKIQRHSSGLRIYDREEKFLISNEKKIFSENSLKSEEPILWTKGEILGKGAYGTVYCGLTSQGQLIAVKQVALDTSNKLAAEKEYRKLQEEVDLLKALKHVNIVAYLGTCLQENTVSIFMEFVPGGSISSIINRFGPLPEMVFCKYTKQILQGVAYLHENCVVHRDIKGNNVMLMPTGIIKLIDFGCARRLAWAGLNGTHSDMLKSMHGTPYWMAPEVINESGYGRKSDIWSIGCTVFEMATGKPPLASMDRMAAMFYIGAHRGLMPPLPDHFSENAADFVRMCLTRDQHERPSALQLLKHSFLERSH

A-427 [9] = experiment: Induction of apoptosis in human A-427 cells assessed as early apoptotic cells at 200 nM measured for 48 hrs by Annexin V/PI double staining based flow cytometry analysis (reference value: 1.96%); type: functional
A-427 [10] = experiment: Induction of apoptosis in human A-427 cells assessed as necrotic cells at 200 nM measured for 48 hrs by Annexin V/PI double staining based flow cytometry analysis (reference value: 0.098%); type: functional
A-427 [11] = experiment: Induction of apoptosis in human A-427 cells assessed as early apoptotic cells at 400 nM measured for 48 hrs by Annexin V/PI double staining based flow cytometry analysis (reference value: 1.96%); type: functional
A-427 [12] = experiment: Induction of apoptosis in human A-427 cells assessed as early apoptotic cells at 800 nM measured for 48 hrs by Annexin V/PI double staining based flow cytometry analysis (reference value: 1.96%); type: functional
A-427 [13] = experiment: Induction of cell cycle arrest in human A-427 cells assessed as accumulation of cells at S phase at 50 nM measured for 48 hrs by flow cytometry analysis (reference value: 4 %); type: functional
A-427 [14] = experiment: Induction of cell cycle arrest in human A-427 cells assessed as accumulation of cells at G0/G1 phase at 100 nM measured for 48 hrs by flow cytometry analysis (reference value: 49.5%); type: functional
A-427 [15] = experiment: Induction of cell cycle arrest in human A-427 cells assessed as accumulation of cells at G0/G1 phase at 200 nM measured for 48 hrs by flow cytometry analysis (reference value: 49.5%); type: functional
A-427 [16] = experiment: Induction of cell cycle arrest in human A-427 cells assessed as accumulation of cells at S phase at 200 nM measured for 48 hrs by flow cytometry analysis (reference value: 4 %); type: functional
A-427 [17] = experiment: Induction of cell cycle arrest in human A-427 cells assessed as accumulation of cells at G2/M phase at 200 nM measured for 48 hrs by flow cytometry analysis (reference value: 10.9 %); type: functional
A-427 [18] = experiment: Induction of cell cycle arrest in human A-427 cells assessed as accumulation of cells at S phase at 400 nM measured for 48 hrs by flow cytometry analysis (reference value: 4 %); type: functional
A-427 [19] = experiment: Induction of cell cycle arrest in human A-427 cells assessed as accumulation of cells at G2/M phase at 400 nM measured for 48 hrs by flow cytometry analysis (reference value: 10.9 %); type: functional
[20] = Acute toxicity in female C57 mouse assessed as reduction in body weight at 2000 mg/kg, IG measured for 14 days; type: organism-based; settings: in vivo, po, 336 h, time 14 day

## C=CCn1c(=O)c2cnc(Nc3ccc(N4CCN(C)CC4)cc3)nc2n1-c1cccc(-c2cnccn2)n1
A-427 [1]
  IC50: 84 nM
[2]
  remaining at 1 h: 58.5%
[3]
  AUC(0-t) at 24 h: 118 ng·h/mL
[4]
  half-life: 1.06 h
[5]
  clearance: 137 mL/min/kg
[6]
  AUC(0-t) at 24 h: 4340 ng·h/mL
[7]
  half-life: 5.94 h
[8]
  inhibition: > 90%
A-427 [9]
  Activity: 9.02%
A-427 [10]
  Activity: 4.82%
A-427 [11]
  Activity: 10.1%
A-427 [12]
  Activity: 10.1%
A-427 [13]
  Activity: 46.7%
A-427 [14]
  Activity: 41.4%
A-427 [15]
  Activity: 31.6%
A-427 [16]
  Activity: 59.1%
A-427 [17]
  Activity: 6.58%
A-427 [18]
  Activity: 59.1%
A-427 [19]
  Activity: 9.32%
[20]
  Activity: Non-Toxic
